For assay [1], the system named is Mino cells. The assay can be described thus: Antiproliferative effect, MTS cell viability assay, Mino cells. Format: cell-based. Conditions: Homo sapiens, MINO, Mino mantle cell lymphoma cells; read-out: IC50 (anti-proliferation) Mino cells. In short, it runs like this:
(§1)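 Cells were exposed to compound at 0, 0.001, 0.01, 0.1, 1 and 10 μM for 72 h. Viability was then measured by MTS assay, reading formazan produced by metabolically active cells as absorbance at 490 nm.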
For orientation: Tetrazolium assays rely on reduction of a dye to a coloured formazan, in cell work by metabolically active cells.

Assay [2] relates to JeKo-1 cells. The assay can be described thus: Antiproliferative effect, MTS cell viability assay, JeKo-1 cells. The format is cell-based. Conditions: Homo sapiens; JeKo-1 mantle cell lymphoma cells; read-out: IC50 (anti-proliferation) JeKO-1 cells. In short, it runs like this:
as §1

Assay [3] deals with BTK (Homo sapiens, UniProt Q06187). The assay can be described thus: Degradation of BTK protein in Namalwa cells (Western blot; DC50, Dmax). The conditions noted are these: for DC50: BTK degradation, cell line not given. A general note: A western blot detects proteins with antibodies after separation by electrophoresis.

Here are results for 14 compounds from patent publication US12139492B2 (Endotarget Inc., priority 2021, dated 2024).

In general, Dmax refers to the greatest extent of degradation seen. A lower Dmax goes with a partial loss of target. One may read the DC50 as the concentration at which degradation of the target reaches its halfway point.

Molecules are shown by their SMILES.

Sequence of BTK (Q06187 whole entry): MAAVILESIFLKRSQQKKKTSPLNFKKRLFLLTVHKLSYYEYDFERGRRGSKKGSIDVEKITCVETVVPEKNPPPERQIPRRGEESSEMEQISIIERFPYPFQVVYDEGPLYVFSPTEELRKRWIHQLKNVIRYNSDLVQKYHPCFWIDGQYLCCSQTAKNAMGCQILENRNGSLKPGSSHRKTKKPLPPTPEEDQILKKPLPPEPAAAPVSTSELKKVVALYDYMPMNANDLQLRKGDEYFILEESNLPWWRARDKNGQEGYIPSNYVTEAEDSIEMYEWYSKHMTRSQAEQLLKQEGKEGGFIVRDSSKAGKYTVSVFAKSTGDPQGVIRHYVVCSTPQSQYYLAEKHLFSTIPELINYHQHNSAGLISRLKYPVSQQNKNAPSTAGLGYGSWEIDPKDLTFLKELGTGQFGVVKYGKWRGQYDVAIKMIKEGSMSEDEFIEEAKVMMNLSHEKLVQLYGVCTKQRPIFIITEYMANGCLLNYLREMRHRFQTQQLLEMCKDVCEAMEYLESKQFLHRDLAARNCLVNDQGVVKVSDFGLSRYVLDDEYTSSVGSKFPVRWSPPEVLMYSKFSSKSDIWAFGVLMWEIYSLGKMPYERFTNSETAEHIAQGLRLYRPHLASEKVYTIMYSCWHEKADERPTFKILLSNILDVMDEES

With `NC(=O)c1c(-c2ccc(Oc3ccccc3)cc2)nn2c1NCCC2C1CCN(C2CCN(C(=O)N3CCC(N4CCN(c5ccc6c(c5)CN(C5CCC(=O)NC5=O)C6=O)CC4)CC3)CC2)CC1` (centres unmarked) [Compound 342, 7-(1′-(4-(4-(2-(2,6-dioxopiperidin-3-yl)-1-oxoisoindolin-5-yl)piperazin-1-yl)piperidine-1-carbonyl)-[1,4′-bipiperidin]-4-yl)-2-(4-phenoxyphenyl)-4,5,6,7-tetrahydropyrazolo[1,5-a]pyrimidine-3-carboxamide], the IC50 in assay [1] is < 1000 nM. In assay [2], the IC50 was < 1000 nM. Besides, in assay [3], the Dmax was > 90% and the DC50 was < 10 nM.
As for `NC(=O)c1c(-c2ccc(Oc3ccccc3)cc2)nn2c1NCCC2C1CCN(C2CCN(C(=O)N3CCC(C4CCN(c5ccc6c(c5)C(=O)N(C5CCC(=O)NC5=O)C6=O)CC4)CC3)CC2)CC1` (centres unmarked) [Compound 343, 7-(1′-(1′-(2-(2,6-dioxopiperidin-3-yl)-1,3-dioxoisoindolin-5-yl)-[4,4′-bipiperidine]-1-carbonyl)-[1,4′-bipiperidin]-4-yl)-2-(4-phenoxyphenyl)-4,5,6,7-tetrahydropyrazolo[1,5-a]pyrimidine-3-carboxamide], the figures for the IC50 in assay [1] and in assay [2] were 1000 to 10000 nM and < 1000 nM, respectively. Besides, the maximal degradation (Dmax) in assay [3] is > 90%. Besides, the DC50 in assay [3] is < 10 nM.
The like results for `NC(=O)c1c(-c2ccc(Oc3ccccc3)cc2)nn2c1NCCC2C1CCN(C2CCN(C(=O)N3CCC(C4CCN(c5ccc6c(c5)CN(C5CCC(=O)NC5=O)C6=O)CC4)CC3)CC2)CC1` (centres unmarked) [Compound 344, 7-(1′-(1′-(2-(2,6-dioxopiperidin-3-yl)-1-oxoisoindolin-5-yl)-[4,4′-bipiperidine]-1-carbonyl)-[1,4′-bipiperidin]-4-yl)-2-(4-phenoxyphenyl)-4,5,6,7-tetrahydropyrazolo[1,5-a]pyrimidine-3-carboxamide] were, in that order, 1000 to 10000 nM, < 1000 nM, > 90% and < 10 nM.
For `NC(=O)c1c(-c2ccc(Oc3ccccc3)cc2)nn2c1NCCC2C1CCN(C2CCN(C(=O)N3CCN(C4CCN(c5ccc6c(c5)C(=O)N(C5CCC(=O)NC5=O)C6=O)CC4)CC3)CC2)CC1` (centres unmarked) [Compound 345, 7-(1′-(4-(1-(2-(2,6-dioxopiperidin-3-yl)-1,3-dioxoisoindolin-5-yl)piperidin-4-yl)piperazine-1-carbonyl)-[1,4′-bipiperidin]-4-yl)-2-(4-phenoxyphenyl)-4,5,6,7-tetrahydropyrazolo[1,5-a]pyrimidine-3-carboxamide], in that order: 1000 to 10000 nM, 1000 to 10000 nM, > 90% and < 10 nM.
For `NC(=O)c1c(-c2ccc(Oc3ccccc3)cc2)nn2c1NCCC2C1CCN(C2CCN(C(=O)N3CCN(C4CCN(c5ccc6c(c5)CN(C5CCC(=O)NC5=O)C6=O)CC4)CC3)CC2)CC1` (centres unmarked) [Compound 346, 7-(1′-(4-(1-(2-(2,6-dioxopiperidin-3-yl)-1-oxoisoindolin-5-yl)piperidin-4-yl)piperazine-1-carbonyl)-[1,4′-bipiperidin]-4-yl)-2-(4-phenoxyphenyl)-4,5,6,7-tetrahydropyrazolo[1,5-a]pyrimidine-3-carboxamide], in that order: < 1000 nM, 1000 to 10000 nM, > 90% and < 10 nM.
Regarding `NC(=O)c1c(-c2ccc(Oc3ccccc3)cc2)nn2c1NCCC2C1CCN(C2CCN(C(=O)N3CCC(N4CCC(c5ccc6c(c5)CN(C5CCC(=O)NC5=O)C6=O)CC4)CC3)CC2)CC1` (centres unmarked) [Compound 348, 7-(1′-(4-(2-(2,6-dioxopiperidin-3-yl)-1-oxoisoindolin-5-yl)-[1,4′-bipiperidine]-1′-carbonyl)-[1,4′-bipiperidin]-4-yl)-2-(4-phenoxyphenyl)-4,5,6,7-tetrahydropyrazolo[1,5-a]pyrimidine-3-carboxamide], the IC50 in assay [1] is < 1000 nM. The IC50 in assay [2] was < 1000 nM. Also, in assay [3], the Dmax was > 90% and the DC50 was < 10 nM.
As to `NC(=O)c1c(-c2ccc(Oc3ccccc3)cc2)nn2c1NCCC2C1CCN(C2CCN(C(=O)N3CCC(CN4CCN(c5ccc6c(c5)C(=O)N(C5CCC(=O)NC5=O)C6=O)CC4)CC3)CC2)CC1` (centres unmarked) [Compound 349, 7-(1′-(4-((4-(2-(2,6-dioxopiperidin-3-yl)-1,3-dioxoisoindolin-5-yl)piperazin-1-yl)methyl)piperidine-1-carbonyl)-[1,4′-bipiperidin]-4-yl)-2-(4-phenoxyphenyl)-4,5,6,7-tetrahydropyrazolo[1,5-a]pyrimidine-3-carboxamide], the IC50 in assay [1] lay in the range of 1000 to 10000 nM. For the same compound, in assay [2], the IC50 was in the range of 1000 to 10000 nM. Further, in assay [3], the Dmax is > 90% and the DC50 fell in the range of 10 to 50 nM.
As for `NC(=O)c1c(-c2ccc(Oc3ccccc3)cc2)nn2c1NCCC2C1CCN(C2CCN(C(=O)N3CCC(CN4CCN(c5ccc6c(c5)CN(C5CCC(=O)NC5=O)C6=O)CC4)CC3)CC2)CC1` (centres unmarked) [Compound 350, 7-(1′-(4-((4-(2-(2,6-dioxopiperidin-3-yl)-1-oxoisoindolin-5-yl)piperazin-1-yl)methyl)piperidine-1-carbonyl)-[1,4′-bipiperidin]-4-yl)-2-(4-phenoxyphenyl)-4,5,6,7-tetrahydropyrazolo[1,5-a]pyrimidine-3-carboxamide], the IC50 in assay [1] is < 1000 nM. Further, the IC50 in assay [2] lay within 1000 to 10000 nM. Moreover, in assay [3], the Dmax was > 90% and the DC50 was < 10 nM.
For `NC(=O)c1c(-c2ccc(Oc3ccccc3)cc2)nn2c1NCCC2C1CCN(C2CCN(C(=O)N3CCN(CC4CCN(c5ccc6c(c5)C(=O)N(C5CCC(=O)NC5=O)C6=O)CC4)CC3)CC2)CC1` (centres unmarked) [Compound 351, 7-(1′-(4-((1-(2-(2,6-dioxopiperidin-3-yl)-1,3-dioxoisoindolin-5-yl)piperidin-4-yl)methyl)piperazine-1-carbonyl)-[1,4′-bipiperidin]-4-yl)-2-(4-phenoxyphenyl)-4,5,6,7-tetrahydropyrazolo[1,5-a]pyrimidine-3-carboxamide], in that order: < 1000 nM, 1000 to 10000 nM, > 90% and 10 to 50 nM.
In the case of `NC(=O)c1c(-c2ccc(Oc3ccccc3)cc2)nn2c1NCCC2C1CCN(C2CCN(C(=O)N3CCN(CC4CCN(c5ccc6c(c5)CN(C5CCC(=O)NC5=O)C6=O)CC4)CC3)CC2)CC1` (centres unmarked) [Compound 352, 7-(1′-(4-((1-(2-(2,6-dioxopiperidin-3-yl)-1-oxoisoindolin-5-yl)piperidin-4-yl)methyl)piperazine-1-carbonyl)-[1,4′-bipiperidin]-4-yl)-2-(4-phenoxyphenyl)-4,5,6,7-tetrahydropyrazolo[1,5-a]pyrimidine-3-carboxamide], the IC50 in assay [1] is < 1000 nM. Moreover, the IC50 in assay [2] was in the range of 1000 to 10000 nM. For the same compound, in assay [3], the Dmax is > 90% and the DC50 is < 10 nM.
For `NC(=O)c1c(-c2ccc(Oc3ccccc3)cc2)nn2c1NCCC2C1CCN(C2CCN(C(=O)N3CCC(CC4CCN(c5ccc6c(c5)C(=O)N(C5CCC(=O)NC5=O)C6=O)CC4)CC3)CC2)CC1` (centres unmarked) [Compound 353, 7-(1′-(4-((1-(2-(2,6-dioxopiperidin-3-yl)-1,3-dioxoisoindolin-5-yl)piperidin-4-yl)methyl)piperidine-1-carbonyl)-[1,4′-bipiperidin]-4-yl)-2-(4-phenoxyphenyl)-4,5,6,7-tetrahydropyrazolo[1,5-a]pyrimidine-3-carboxamide], in that order: < 1000 nM, 1000 to 10000 nM, > 90% and 10 to 50 nM.
For `NC(=O)c1c(-c2ccc(Oc3ccccc3)cc2)nn2c1NCCC2C1CCN(C2CCN(C(=O)N3CCC(CC4CCN(c5ccc6c(c5)CN(C5CCC(=O)NC5=O)C6=O)CC4)CC3)CC2)CC1` (centres unmarked) [Compound 354, 7-(1′-(4-((1-(2-(2,6-dioxopiperidin-3-yl)-1-oxoisoindolin-5-yl)piperidin-4-yl)methyl)piperidine-1-carbonyl)-[1,4′-bipiperidin]-4-yl)-2-(4-phenoxyphenyl)-4,5,6,7-tetrahydropyrazolo[1,5-a]pyrimidine-3-carboxamide], in that order: 1000 to 10000 nM, 1000 to 10000 nM, > 90% and 10 to 50 nM.
As to `NC(=O)c1c(-c2ccc(Oc3ccccc3)cc2)nn2c1NCCC2C1CCN(C2CCN(C(=O)N3CCC(CN4CCC(c5ccc6c(c5)C(=O)N(C5CCC(=O)NC5=O)C6=O)CC4)CC3)CC2)CC1` (centres unmarked) [Compound 355, 7-(1′-(4-((4-(2-(2,6-dioxopiperidin-3-yl)-1,3-dioxoisoindolin-5-yl)piperidin-1-yl)methyl)piperidine-1-carbonyl)-[1,4′-bipiperidin]-4-yl)-2-(4-phenoxyphenyl)-4,5,6,7-tetrahydropyrazolo[1,5-a]pyrimidine-3-carboxamide], the IC50 in assay [1] lay within 1000 to 10000 nM. The IC50 in assay [2] is 1000 to 10000 nM. Besides, in assay [3], the maximal degradation (Dmax) is > 90% and the DC50 is < 10 nM.
`NC(=O)c1c(-c2ccc(Oc3ccccc3)cc2)nn2c1NCCC2C1CCN(C2CCN(C(=O)N3CCC(CN4CCC(c5ccc6c(c5)CN(C5CCC(=O)NC5=O)C6=O)CC4)CC3)CC2)CC1` (centres unmarked) [Compound 356, 7-(1′-(4-((4-(2-(2,6-dioxopiperidin-3-yl)-1-oxoisoindolin-5-yl)piperidin-1-yl)methyl)piperidine-1-carbonyl)-[1,4′-bipiperidin]-4-yl)-2-(4-phenoxyphenyl)-4,5,6,7-tetrahydropyrazolo[1,5-a]pyrimidine-3-carboxamide]: the IC50 in assay [1] is < 1000 nM; in assay [2] it was 1000 to 10000 nM. The Dmax in assay [3] was > 90%. In assay [3], the DC50 is < 10 nM.
